Assays:
oat first-internode = conditions: published reports; cited from earlier work
tobacco callus = assay: Growth of tobacco callus, triacontanol and octocosanol (Example XIX, FIG. 6); format: cell-based, Nicotiana tabacum, var. Wisconsin 38; conditions: four concentrations, 10 days
Method: Cell cultures were separately grown in disposable petri dishes.
1. Haploid tobacco (Nicotiana tabacum, var. Wisconsin 38)
The cultures were grown on the basic medium of mineral salts described by Linsmaier and Skoog (Physiol. Plant, […] (1965)). Vitamins and hormones varied for each tissue (Table X-1) to maintain the tissues in an undifferentiated state. For all of the tissues inositol was 100 mg/liter and agar 1%. Sucrose was 3% for all but the bean which was 2%.
Callus was produced from pith for tobacco, potato and tomato. Bean callus was produced from hypocotyl sections and barley callus from immature ovarian tissue. Subcultures were maintained on the appropriate media.
Stock solutions of triacontanol were prepared at a concentration of 100 μg/ml. The solvent used was glass distilled benzene. The lower concentrations were obtained by serial dilutions. Treatments were applied to 4.5 cm Whatman #1 filter paper disks in 100 μl aliquots. Controls received 100 μl of glass distilled benzene. The solvent was evaporated for approximately 15 minutes and the filter papers were then placed on the agar medium.
Callus tissue was then broken into pieces of approximately the same size (10 mg) and placed in the petri dishes on the treated filter paper (one piece per dish). For experiments conducted in the light the intensity was approximately 2.0 microwatts/cm^2 -namometer. Fresh weight measurements were made after 12 days of growth.
A stock solution of octocosanol (CH3 (CH2)26 CH2 OH was prepared in the same manner as the triacontanol solutions above described.
The effect of four concentrations of triacontanol and octocosanol on tobacco callus was determined, using the materials and procedures above described in this Example. The dishes were tared and weighed at the end of 10 days. The results are illustrated in FIG. 6 of the drawings.

plants = assay: Plant growth regulation (general statement); format: in vivo; conditions: analogous compounds

Row | Compound | growth, oat first-internode method (oat first-internode) | growth over the control (tobacco callus) | effect as plant growth regulator (plants)
1 | CCCCCCCCCCCCCCCCCCCCCCO [1-docosanol, reference compound] | increase growth |  | 
2 | CCCCCCCCCCCCCCCCCCCCCCCCCCCCO [octocosanol, reference compound] |  | no effect on growth | ineffective
3 | CCCCCCCCCCCCCCCCCCCCCCCCCCCC(=O)O [octocosanoic acid] |  |  | ineffective
4 | CCCCCCCCCCCCCCCCCCCCCCCCCCCCCC [triacontane] |  |  | ineffective

Source: patent US4150970A, “Growth regulator for plants” (Board of Trustees of Michigan State University, priority 1977, dated 1979)
